In patent US20190010531A1, “CELL CULTURE PROCESS FOR MAKING A GLYCOPROTEIN” (Regeneron Pharmaceuticals, Inc., priority 2017, published 2019):

Test system: CHO cells expressing a trap protein (receptor-Fc fusion protein, VEGF-trap)
Conditions: 36.6 mg/L putrescine; VEGF-trap from CHO cells

`NCCCCN` [putrescine, 1,4-Diaminobutane] was tested, and the “Al N-Glycan relative amount (% area under the curve)” value was 9.0 % area under the curve.
